Blank lines part the entries; values can stand above or below the compound they belong to. Active and inactive are the calls of the source. No cut-off for these calls is given here.
What was measured:
[1] = target: T1, Toll-like receptor 7 (Homo sapiens) (UniProt Q9NYK1); experiment: Activation of human TLR7 expressed in HEK293 cell assessed as induction of NF-kB after 18 hrs by luciferase reporter gene assay; format: cell-based
T1 sequence (whole entry): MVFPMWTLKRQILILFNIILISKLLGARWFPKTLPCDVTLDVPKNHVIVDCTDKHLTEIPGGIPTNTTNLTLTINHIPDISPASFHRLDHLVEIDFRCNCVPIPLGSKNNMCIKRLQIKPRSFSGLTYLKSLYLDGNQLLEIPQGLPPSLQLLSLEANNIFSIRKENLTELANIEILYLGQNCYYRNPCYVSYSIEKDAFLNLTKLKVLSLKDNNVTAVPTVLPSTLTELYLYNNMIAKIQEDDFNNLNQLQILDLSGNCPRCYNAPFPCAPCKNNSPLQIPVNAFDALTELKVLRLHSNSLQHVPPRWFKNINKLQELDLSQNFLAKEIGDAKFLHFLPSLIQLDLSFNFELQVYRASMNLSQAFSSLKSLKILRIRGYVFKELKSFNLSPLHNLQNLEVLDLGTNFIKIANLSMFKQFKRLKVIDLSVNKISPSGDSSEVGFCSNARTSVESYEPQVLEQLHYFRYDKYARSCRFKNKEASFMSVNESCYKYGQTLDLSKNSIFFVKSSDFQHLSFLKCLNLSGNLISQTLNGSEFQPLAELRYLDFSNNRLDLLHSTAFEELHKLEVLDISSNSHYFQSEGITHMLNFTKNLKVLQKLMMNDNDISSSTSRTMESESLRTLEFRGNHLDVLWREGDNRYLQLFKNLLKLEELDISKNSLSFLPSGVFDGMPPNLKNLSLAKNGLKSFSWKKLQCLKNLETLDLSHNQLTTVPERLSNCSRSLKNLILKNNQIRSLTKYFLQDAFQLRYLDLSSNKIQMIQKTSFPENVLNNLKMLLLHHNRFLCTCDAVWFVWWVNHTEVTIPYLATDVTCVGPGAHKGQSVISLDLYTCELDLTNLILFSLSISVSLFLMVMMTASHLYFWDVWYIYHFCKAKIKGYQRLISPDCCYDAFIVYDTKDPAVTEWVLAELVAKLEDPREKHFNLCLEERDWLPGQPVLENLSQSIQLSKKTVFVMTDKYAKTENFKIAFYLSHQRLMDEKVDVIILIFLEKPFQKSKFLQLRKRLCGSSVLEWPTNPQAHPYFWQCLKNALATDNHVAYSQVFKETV

[2] = target: T2, Toll-like receptor 8 (Homo sapiens) (UniProt Q9NR97); experiment: Activation of human TLR8 expressed in HEK293 cells assessed as induction of NF-kB after 18 hrs by luciferase reporter gene assay; format: cell-based
T2 sequence (whole entry): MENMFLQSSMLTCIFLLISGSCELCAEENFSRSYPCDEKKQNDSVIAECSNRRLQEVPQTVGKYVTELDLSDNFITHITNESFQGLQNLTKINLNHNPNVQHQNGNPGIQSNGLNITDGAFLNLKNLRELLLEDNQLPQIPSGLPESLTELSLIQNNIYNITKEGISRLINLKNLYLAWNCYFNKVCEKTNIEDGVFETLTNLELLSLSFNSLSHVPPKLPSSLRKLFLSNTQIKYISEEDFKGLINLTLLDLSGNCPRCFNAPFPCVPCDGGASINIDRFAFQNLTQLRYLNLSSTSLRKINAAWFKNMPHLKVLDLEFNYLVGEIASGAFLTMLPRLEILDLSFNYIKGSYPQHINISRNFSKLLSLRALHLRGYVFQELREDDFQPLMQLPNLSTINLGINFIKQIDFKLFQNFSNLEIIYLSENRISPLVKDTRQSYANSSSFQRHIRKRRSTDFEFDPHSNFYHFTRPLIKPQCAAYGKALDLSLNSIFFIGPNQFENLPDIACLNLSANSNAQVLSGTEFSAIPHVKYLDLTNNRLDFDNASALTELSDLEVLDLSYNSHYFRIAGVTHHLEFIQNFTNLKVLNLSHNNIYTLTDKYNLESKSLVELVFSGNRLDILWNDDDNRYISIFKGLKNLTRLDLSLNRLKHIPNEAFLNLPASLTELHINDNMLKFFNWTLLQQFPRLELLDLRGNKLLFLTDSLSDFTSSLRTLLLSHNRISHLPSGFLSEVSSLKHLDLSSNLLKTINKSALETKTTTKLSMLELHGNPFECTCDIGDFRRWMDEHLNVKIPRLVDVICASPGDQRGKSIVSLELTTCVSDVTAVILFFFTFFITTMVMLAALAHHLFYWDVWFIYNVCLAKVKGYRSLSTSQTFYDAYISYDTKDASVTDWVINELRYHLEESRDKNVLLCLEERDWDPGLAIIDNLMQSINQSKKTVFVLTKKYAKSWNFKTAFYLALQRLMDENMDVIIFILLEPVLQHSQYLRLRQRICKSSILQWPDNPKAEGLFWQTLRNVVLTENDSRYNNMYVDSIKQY

[3] = test system: PBMC; experiment: Immunomodulatory activity in human PBMC assessed as induction of IL-6 secretion at 5 uM after 24 hrs by ELISA; format: functional, cell-based
[4] = Binding affinity to synthetic ODN2216 assessed as ratio of fluorescence intensity of compound-ODN complex to fluorescence intensity of compound at 0.01 mol/dm3 at pH 5.7 by fluorescence spectroscopic method
[5] = Binding affinity to synthetic ODN2006 assessed as ratio of fluorescence intensity of compound-ODN complex to fluorescence intensity of compound at 0.01 mol/dm3 at pH 5.7 by fluorescence spectroscopic method
[6] = Binding affinity to synthetic ODN2216 at 0.01 mol/dm3 at pH 5.7 by fluorescence spectroscopic method
[7] = test system: PBMC; experiment: Immunomodulatory activity in human PBMC assessed as induction of IL-1beta secretion at 10 uM after 24 hrs by ELISA; format: functional, cell-based
[8] = Binding affinity to synthetic ODN2006 assessed as ratio of fluorescence intensity of compound-ODN complex to fluorescence intensity of compound at 0.01 mol/dm3 at pH 7 by fluorescence spectroscopic method
[9] = target: Toll-like receptor 3 (Homo sapiens) (UniProt O15455); experiment: Inhibition of human TLR3 expressed in HEK293 cells assessed as reduction in poly(I:C)-induced NF-kB activation up to 5 uM after 18 hrs by luciferase reporter gene assay; format: cell-based
Sequence of Toll-like receptor 3 (Homo sapiens) (O15455 whole entry): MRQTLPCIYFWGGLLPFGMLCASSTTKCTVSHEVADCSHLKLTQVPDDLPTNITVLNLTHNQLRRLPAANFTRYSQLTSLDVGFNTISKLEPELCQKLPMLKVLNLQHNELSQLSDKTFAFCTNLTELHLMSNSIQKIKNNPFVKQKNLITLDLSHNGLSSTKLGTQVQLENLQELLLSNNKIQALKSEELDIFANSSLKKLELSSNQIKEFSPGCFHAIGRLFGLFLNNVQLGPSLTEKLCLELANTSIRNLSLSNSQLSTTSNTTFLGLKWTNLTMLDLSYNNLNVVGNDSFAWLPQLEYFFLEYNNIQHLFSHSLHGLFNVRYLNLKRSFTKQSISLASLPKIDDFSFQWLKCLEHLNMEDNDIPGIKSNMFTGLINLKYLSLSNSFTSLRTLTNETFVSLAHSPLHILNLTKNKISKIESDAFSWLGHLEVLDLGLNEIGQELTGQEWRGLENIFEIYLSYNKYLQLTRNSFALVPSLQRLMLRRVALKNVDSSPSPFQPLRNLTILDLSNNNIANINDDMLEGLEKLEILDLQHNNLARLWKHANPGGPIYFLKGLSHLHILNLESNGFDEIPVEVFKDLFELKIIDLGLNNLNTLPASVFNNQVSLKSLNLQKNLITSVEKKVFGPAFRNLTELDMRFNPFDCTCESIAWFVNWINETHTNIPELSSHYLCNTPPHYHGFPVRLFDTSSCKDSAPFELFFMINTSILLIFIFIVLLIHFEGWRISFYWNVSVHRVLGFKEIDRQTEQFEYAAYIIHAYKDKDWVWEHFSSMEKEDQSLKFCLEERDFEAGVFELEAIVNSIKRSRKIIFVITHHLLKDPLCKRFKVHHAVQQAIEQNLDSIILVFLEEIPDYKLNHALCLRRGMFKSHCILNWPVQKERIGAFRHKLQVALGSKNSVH

[10] = test system: PBMC; experiment: Immunomodulatory activity in human PBMC assessed as induction of IL-8 secretion after 24 hrs by ELISA; format: functional, cell-based
[11] = Binding affinity to synthetic ODN2006 at 0.01 mol/dm3 at pH 5.7 by fluorescence spectroscopic method
[12] = Solubility of the compound in water; format: physicochemical; conditions: buffer
[13] = target: Toll-like receptor 3 (Homo sapiens) (UniProt O15455); experiment: Inhibition of TLR3 in human PBMC assessed as reduction in poly(I:C)-stimulated IL-6 expression at 1 to 10 uM by ELISA relative to control
[14] = test system: PBMC; experiment: Immunomodulatory activity in human PBMC assessed as induction of TNFalpha secretion at 10 uM after 24 hrs by ELISA; format: functional, cell-based
[15] = test system: HEK293; experiment: Cytotoxicity against HEK293 cells assessed as reduction in cell viability up to 10 uM after 24 hrs by MTT assay; format: cell-based; conditions: human, hek293, 24 h
[16] = target: T1, Toll-like receptor 7 (Homo sapiens); experiment: Activation of human TLR7 expressed in HEK293 cells assessed as induction of NF-kB at 0.1 to 5 uM after 18 hrs by luciferase reporter gene assay; format: cell-based
[17] = Binding affinity to synthetic ODN2006 assessed as ICD band around 300 nm at 3 x 10^5 10^-6mol/dm3 at pH 5.7 by CD spectroscopic method
[18] = test system: THP-1; experiment: Cytotoxicity against human THP1 cells assessed as reduction in cell viability up to 10 uM after 24 hrs by MTT assay; format: cell-based; conditions: thp-1, 24 h
[19] = target: T3, Toll-like receptor 9 (Homo sapiens) (UniProt Q9NR96); experiment: Inhibition of TLR9 in human PBMC assessed as reduction in ODN2006-stimulated IL-8 expression at 1 to 10 uM by ELISA
T3 sequence (whole entry): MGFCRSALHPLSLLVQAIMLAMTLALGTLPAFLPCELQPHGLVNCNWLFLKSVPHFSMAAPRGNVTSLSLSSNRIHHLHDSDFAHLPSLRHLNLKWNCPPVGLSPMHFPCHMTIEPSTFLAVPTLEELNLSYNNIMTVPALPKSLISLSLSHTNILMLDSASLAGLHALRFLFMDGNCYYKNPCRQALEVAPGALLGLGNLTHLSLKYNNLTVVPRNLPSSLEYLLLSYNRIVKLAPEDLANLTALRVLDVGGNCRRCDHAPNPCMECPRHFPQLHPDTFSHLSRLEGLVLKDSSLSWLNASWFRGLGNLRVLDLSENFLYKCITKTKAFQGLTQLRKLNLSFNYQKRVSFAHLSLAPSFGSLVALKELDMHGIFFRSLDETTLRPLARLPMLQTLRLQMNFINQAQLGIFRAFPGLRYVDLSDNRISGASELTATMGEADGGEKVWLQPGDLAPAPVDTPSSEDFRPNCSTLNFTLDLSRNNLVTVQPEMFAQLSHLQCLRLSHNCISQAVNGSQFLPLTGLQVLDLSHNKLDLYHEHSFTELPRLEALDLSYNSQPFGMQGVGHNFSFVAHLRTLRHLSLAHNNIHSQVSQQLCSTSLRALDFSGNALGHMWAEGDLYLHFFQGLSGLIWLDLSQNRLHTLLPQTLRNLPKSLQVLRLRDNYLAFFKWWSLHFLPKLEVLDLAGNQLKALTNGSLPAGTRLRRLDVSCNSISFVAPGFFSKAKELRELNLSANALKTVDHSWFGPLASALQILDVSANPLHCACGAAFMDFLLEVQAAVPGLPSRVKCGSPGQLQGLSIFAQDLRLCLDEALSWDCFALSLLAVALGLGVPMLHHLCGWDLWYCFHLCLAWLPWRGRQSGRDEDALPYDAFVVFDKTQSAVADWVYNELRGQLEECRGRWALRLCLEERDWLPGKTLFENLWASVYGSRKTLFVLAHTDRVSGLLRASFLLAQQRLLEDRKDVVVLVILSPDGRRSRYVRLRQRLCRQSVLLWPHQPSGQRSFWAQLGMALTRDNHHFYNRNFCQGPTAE

[20] = Binding affinity to synthetic ODN2216 assessed as negative ICD band around 240 to 340 nm at 3 x 10^5 10^-6mol/dm3 at pH 5.7 by CD spectroscopic method
[21] = Binding affinity to synthetic ODN2006 at 0.01 mol/dm3 at pH 7 by fluorescence spectroscopic method
[22] = test system: PBMC; experiment: Cytotoxicity against human PBMC assessed as reduction in cell viability up to 10 uM after 24 hrs by MTT assay; format: cell-based
[23] = Binding affinity to synthetic ODN2216 assessed as negative ICD band around 240 to 340 nm at 3 x 10^5 10^-6mol/dm3 at pH 7 by CD spectroscopic method
[24] = test system: PBMC; experiment: Immunomodulatory activity in human PBMC assessed as induction of IL-6 secretion at 10 uM after 24 hrs by ELISA; format: functional, cell-based
[25] = target: T3, Toll-like receptor 9 (Homo sapiens); experiment: Inhibition of TLR9 in PMA-induc ed human THP1 cells assessed as reduction in ODN2216-induced TNFalpha by ELISA
[26] = Binding affinity to synthetic ODN2006 assessed as ICD band around 301 nm at 3 x 10^5 10^-6mol/dm3 at pH 7 by CD spectroscopic method
[27] = test system: PBMC; experiment: Immunomodulatory activity in human PBMC assessed as induction of INFalpha secretion at 10 uM after 24 hrs by ELISA; format: functional, cell-based
[28] = target: T2, Toll-like receptor 8 (Homo sapiens); experiment: Activation of human TLR8 expressed in HEK293 cells assessed as induction of NF-kB at 0.1 to 5 uM after 18 hrs by luciferase reporter gene assay; format: cell-based
[29] = target: T3, Toll-like receptor 9 (Homo sapiens); experiment: Inhibition of human TLR9 activation expressed in HEK293 cells assessed as reduction in ODN2006-induced NF-kB activation up to 5 uM after 18 hrs by luciferase reporter gene assay; format: cell-based
[30] = target: T3, Toll-like receptor 9 (Homo sapiens); experiment: Inhibition of TLR9 in human PBMC assessed as reduction in ODN2216-stimulated IFNalpha expression at 1 to 10 uM by ELISA
[31] = target: Toll-like receptor 3 (Homo sapiens) (UniProt O15455); experiment: Inhibition of TLR3 in human PBMC assessed as reduction in poly(I:C)-stimulated IL-6 expression at 1 uM by ELISA relative to control
[32] = test system: PBMC; experiment: Immunomodulatory activity in human PBMC assessed as induction of IL-6 secretion at 16 uM after 24 hrs by ELISA; format: functional, cell-based

Activity [1]: Active
Activity [2]: Active
SMILES: CCOCc1nc2c(N)nc3ccccc3c2[nH]1

SMILES: CC(C)Cn1cnc2c(N)nc3ccccc3c21
Activity [3]: Active

Ratio [4]: 0.73
Ratio [5]: 0.2
log Ks [6]: 4.04
Ratio [8]: 0.6
inhibition [9]: Active
log Ks [11]: 4.5
solubility [12]: Insoluble
inhibition [13]: Active
Activity [16]: inactive
Activity [17]: inactive
inhibition [19]: inactive
Activity [20]: Active
log Ks [21]: 5.4
Activity [23]: Active
inhibition [25]: Dose-dependent effect
Activity [26]: Active
Activity [28]: inactive
inhibition [29]: Active
inhibition [30]: Active
inhibition [31]: 50%
SMILES: CCNC(=O)Nc1ccc2c(c1)c(C)nc1ccccc12
Activity [7]: inactive
Activity [10]: Dose-dependent effect
Activity [14]: Active
Activity [15]: Non-Toxic
Activity [18]: Non-Toxic
Activity [22]: Non-Toxic
Activity [24]: Active
Activity [27]: inactive

SMILES: CCOCc1nc2c(N)nc3ccccc3c2n1CC(C)(C)O
Activity [32]: Active

— ChEMBL document CHEMBL4007458, “1-ethyl-3-(6-methylphenanthridine-8-il) urea modulates TLR3/9 activation and induces selective pro-inflammatory cytokine expression in vitro” (Bioorg Med Chem Lett, 2017)
